Data from US6693107B1, “Pharmaceutical composition useful for the treatment of tinnitus and hearing loss” (priority 1999, dated 2004).
Where a name gives a salt, the structure may show the parent alone.

Columns and labels:
tinnitus = assay: Case reports: tinnitus in patients treated with sildenafil citrate; format: in vivo, human
Text: A person suffering for several years from severe tinnitus and hearing loss in their right ear had repeatedly sought medical advice and tried many alleged therapies for their tinnitus, none of which was effective. […] Other than that they are in good health and receives no medications. Recently they were prescribed sildenafil citrate for improving their sexual performance. […] A person known to have bilateral tinnitus and hearing loss for more than 20 years. Other than hypertension, for which they are treated, they are in good health. They were prescribed sildenafil citrate, 25 mg daily, for the tinnitus.

hearing loss = assay: Case report: hearing loss / audiogram in patient treated with sildenafil citrate; format: in vivo, human
Text: A person suffering for several years from severe tinnitus and hearing loss in their right ear had repeatedly sought medical advice and tried many alleged therapies for their tinnitus, none of which was effective. […] Other than that they are in good health and receives no medications. Recently they were prescribed sildenafil citrate for improving their sexual performance. […] For instance, at frequencies of 500-1000 Hz, hearing in their right ear improved from 50-55 dB to 30 dB.

[1] = patients suffering from tinnitus

CCCc1nn(C)c2c(=O)[nH]c(-c3cc(S(=O)(=O)N4CCN(C)CC4)ccc3OCC)nc12 [sildenafil citrate, 1-[[3-(6,7-dihydro-1-methyl-7-oxo-3-propyl-1H-pyrazolo [4,3-d]pyrimidin-5-yl)-4-ethoxyphenyl]sulfonyl]4-methylpiperazine citrate]
effect on tinnitus (tinnitus; Example 1: person, severe tinnitus in right ear, first course of sildenafil citrate): amelioration of the tinnitus, which eventually nearly disappeared
tinnitus status on continued treatment (tinnitus; Example 1: person, continues on sildenafil citrate): practically tinnitus-free
return of the tinnitus after cessation of the medication (tinnitus; Example 1: person, intentional stop of the medication): 2-3 weeks
severity of tinnitus on rechallenge (tinnitus; Example 1: person, rechallenge 25 mg twice weekly): reduced the severity of tinnitus within a week and proceeded to almost complete disappearance of the symptom
effect on tinnitus (tinnitus; Example 2: person, bilateral tinnitus, 25 mg daily, starting after the 5th daily dose, persisted as long as drug taken): marked reduction in their tinnitus
audiogram (overall) (hearing loss; Example 1: after several months treatment): marked improvement
hearing in right ear after treatment (audiogram) (hearing loss; Example 1: frequencies of 500-1000 Hz, after several months treatment, improved from 50-55 dB before treatment): 30 dB
hearing (patient report) (hearing loss; Example 1: person, hearing loss in right ear, on continued treatment): significant improvement in their hearing

CCCc1nn(C)c2c(=O)[nH]c(-c3cc(S(=O)(=O)N4CCN(C)CC4)ccc3OCC)nc12 [sildenafil]
effect on tinnitus (general statement) (tinnitus; [1]): effective in reducing tinnitus
effect on hearing loss (general statement) (hearing loss; [1]): ameliorating hearing loss
